Key:
[1] = target: T1, Serine/threonine-protein kinase Nek1 (Homo sapiens) (UniProt Q96PY6); test: Selectivity interaction (Kinase panel (DSF assay)) EUB0001558a NEK1
T1 sequence (whole entry): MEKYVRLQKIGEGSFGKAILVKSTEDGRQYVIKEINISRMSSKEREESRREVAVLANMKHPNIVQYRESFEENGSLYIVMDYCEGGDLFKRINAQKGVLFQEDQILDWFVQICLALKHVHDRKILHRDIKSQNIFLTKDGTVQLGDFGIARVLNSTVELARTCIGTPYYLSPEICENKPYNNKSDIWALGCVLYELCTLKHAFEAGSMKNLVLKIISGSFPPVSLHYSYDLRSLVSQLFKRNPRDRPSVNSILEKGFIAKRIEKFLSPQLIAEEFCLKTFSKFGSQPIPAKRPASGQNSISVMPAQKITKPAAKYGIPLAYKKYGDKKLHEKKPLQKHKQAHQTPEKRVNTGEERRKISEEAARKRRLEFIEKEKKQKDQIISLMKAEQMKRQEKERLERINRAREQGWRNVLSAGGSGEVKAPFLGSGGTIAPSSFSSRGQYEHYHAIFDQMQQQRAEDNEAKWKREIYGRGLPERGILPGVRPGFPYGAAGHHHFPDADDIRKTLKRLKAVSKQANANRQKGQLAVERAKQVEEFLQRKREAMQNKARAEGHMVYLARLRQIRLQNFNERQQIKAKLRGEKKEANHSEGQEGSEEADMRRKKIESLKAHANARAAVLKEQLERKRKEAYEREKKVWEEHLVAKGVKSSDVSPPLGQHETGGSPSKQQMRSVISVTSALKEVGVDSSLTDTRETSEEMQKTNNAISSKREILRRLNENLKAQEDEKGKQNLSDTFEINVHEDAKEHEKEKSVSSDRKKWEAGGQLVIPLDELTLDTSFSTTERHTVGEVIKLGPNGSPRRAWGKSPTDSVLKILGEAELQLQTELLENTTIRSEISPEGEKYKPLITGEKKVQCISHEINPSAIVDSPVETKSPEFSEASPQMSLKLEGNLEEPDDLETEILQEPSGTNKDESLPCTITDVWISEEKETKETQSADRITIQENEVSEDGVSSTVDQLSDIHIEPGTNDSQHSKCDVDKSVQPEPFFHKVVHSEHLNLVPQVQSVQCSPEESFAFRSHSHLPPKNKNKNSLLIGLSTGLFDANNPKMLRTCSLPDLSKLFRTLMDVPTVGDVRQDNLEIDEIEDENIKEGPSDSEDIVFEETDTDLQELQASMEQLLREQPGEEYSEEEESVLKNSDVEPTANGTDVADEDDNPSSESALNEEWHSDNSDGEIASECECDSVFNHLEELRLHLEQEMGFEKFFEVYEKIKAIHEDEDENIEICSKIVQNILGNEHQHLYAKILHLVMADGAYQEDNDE

[2] = target: Microtubule-associated serine/threonine-protein kinase 1 (Homo sapiens) (UniProt Q9Y2H9); test: Selectivity interaction (KinomeScan (DiscoverX)) EUB0000655a MAST1; settings: at 10 µM
[3] = target: T2, Serine/threonine-protein kinase 3 (Homo sapiens) (UniProt Q13188); test: Selectivity interaction (KinomeScan (DiscoverX)) EUB0001079a STK3; settings: at 1 µM
T2 sequence (whole entry): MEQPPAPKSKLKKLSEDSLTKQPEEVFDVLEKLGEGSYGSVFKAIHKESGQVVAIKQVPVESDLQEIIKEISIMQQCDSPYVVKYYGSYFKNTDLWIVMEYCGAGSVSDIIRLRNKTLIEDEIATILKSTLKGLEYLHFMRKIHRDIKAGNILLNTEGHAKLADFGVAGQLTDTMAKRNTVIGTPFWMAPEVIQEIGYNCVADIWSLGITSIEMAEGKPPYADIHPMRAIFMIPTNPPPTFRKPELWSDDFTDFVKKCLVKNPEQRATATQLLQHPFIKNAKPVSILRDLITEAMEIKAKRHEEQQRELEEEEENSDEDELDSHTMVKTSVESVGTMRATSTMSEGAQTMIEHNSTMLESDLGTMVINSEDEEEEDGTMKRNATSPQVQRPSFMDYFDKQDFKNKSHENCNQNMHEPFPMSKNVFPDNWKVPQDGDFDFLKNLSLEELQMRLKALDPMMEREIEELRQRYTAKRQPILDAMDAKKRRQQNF

[4] = target: T3, Serine/threonine-protein kinase Nek2 (Homo sapiens) (UniProt P51955); test: Selectivity interaction (KinomeScan (DiscoverX)) EUB0001079a NEK2; settings: at 1 µM
T3 sequence (whole entry): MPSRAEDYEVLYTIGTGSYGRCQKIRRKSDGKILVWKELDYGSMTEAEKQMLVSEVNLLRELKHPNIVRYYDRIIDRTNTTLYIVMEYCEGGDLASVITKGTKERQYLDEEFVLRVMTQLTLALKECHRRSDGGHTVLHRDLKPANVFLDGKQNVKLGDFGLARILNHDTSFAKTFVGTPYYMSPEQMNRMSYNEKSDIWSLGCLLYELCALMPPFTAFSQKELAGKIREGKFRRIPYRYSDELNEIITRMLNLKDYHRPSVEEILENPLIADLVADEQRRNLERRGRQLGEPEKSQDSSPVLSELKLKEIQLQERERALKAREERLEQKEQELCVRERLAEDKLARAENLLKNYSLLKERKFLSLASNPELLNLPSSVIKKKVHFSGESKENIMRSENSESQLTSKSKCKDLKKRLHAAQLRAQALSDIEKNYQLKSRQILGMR

[5] = test system: Epidermal growth factor receptor (Homo sapiens), P00533 [UNDEFINED MUTATION]; test: Selectivity interaction (KinomeScan (DiscoverX)) EUB0000666a EGFR; settings: at 10 µM
[6] = target: MAP kinase-activated protein kinase 3 (Homo sapiens) (UniProt Q16644); test: Selectivity interaction (SelectScreen profiling (Invitrogen)) EUB0000607a MAPKAPK3; settings: at 2 µM
[7] = target: Hepatocyte growth factor-like protein (Homo sapiens) (UniProt P26927); test: Selectivity interaction (Kinase panel (Eurofins)) EUB0001564a MST1; settings: at 1 µM

MAP kinase-activated protein kinase 3 (Homo sapiens), sequence (Q16644 whole entry, looked up): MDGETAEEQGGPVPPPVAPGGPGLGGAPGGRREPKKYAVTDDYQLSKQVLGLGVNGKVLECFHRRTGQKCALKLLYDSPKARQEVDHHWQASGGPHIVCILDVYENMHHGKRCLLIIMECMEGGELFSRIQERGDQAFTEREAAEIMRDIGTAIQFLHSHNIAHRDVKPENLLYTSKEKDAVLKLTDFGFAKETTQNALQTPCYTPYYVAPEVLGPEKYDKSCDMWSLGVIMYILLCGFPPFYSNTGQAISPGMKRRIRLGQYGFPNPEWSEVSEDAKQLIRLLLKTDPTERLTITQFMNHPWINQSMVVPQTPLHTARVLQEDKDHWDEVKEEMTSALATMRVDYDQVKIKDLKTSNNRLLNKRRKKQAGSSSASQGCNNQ
Epidermal growth factor receptor (Homo sapiens), P00533 [UNDEFINED MUTATION], sequence (P00533 whole entry, looked up, change not shown): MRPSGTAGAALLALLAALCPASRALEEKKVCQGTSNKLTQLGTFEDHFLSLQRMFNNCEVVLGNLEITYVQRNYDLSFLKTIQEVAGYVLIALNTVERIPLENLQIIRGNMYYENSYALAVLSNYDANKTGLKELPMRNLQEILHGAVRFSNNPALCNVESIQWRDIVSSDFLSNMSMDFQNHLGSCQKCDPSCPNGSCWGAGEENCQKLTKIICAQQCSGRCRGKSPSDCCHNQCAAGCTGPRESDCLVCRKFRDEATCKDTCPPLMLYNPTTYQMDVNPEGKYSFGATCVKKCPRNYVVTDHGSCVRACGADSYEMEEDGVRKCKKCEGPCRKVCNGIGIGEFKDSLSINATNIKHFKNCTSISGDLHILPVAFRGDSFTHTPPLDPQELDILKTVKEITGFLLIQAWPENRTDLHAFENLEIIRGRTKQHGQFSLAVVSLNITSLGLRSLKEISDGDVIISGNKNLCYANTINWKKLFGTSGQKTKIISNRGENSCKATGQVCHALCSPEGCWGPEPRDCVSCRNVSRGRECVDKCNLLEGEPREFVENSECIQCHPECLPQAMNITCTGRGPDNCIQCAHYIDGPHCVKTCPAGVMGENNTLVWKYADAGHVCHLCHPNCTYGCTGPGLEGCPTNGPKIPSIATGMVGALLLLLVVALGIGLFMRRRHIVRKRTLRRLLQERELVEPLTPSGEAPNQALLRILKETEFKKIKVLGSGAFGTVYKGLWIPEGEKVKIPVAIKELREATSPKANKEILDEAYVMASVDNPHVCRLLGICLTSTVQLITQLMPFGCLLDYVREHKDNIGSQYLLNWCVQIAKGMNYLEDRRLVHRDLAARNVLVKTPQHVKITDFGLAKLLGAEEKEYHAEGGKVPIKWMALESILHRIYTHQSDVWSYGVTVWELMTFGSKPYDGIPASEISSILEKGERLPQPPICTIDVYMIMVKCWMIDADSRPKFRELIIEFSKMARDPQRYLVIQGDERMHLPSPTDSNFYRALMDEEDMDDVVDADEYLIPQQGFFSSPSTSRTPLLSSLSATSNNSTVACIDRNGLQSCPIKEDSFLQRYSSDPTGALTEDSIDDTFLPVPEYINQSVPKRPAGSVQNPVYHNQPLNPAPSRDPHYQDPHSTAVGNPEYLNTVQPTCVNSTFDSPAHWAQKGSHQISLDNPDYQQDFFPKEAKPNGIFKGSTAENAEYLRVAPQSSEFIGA
Microtubule-associated serine/threonine-protein kinase 1 (Homo sapiens), sequence (Q9Y2H9 whole entry, looked up): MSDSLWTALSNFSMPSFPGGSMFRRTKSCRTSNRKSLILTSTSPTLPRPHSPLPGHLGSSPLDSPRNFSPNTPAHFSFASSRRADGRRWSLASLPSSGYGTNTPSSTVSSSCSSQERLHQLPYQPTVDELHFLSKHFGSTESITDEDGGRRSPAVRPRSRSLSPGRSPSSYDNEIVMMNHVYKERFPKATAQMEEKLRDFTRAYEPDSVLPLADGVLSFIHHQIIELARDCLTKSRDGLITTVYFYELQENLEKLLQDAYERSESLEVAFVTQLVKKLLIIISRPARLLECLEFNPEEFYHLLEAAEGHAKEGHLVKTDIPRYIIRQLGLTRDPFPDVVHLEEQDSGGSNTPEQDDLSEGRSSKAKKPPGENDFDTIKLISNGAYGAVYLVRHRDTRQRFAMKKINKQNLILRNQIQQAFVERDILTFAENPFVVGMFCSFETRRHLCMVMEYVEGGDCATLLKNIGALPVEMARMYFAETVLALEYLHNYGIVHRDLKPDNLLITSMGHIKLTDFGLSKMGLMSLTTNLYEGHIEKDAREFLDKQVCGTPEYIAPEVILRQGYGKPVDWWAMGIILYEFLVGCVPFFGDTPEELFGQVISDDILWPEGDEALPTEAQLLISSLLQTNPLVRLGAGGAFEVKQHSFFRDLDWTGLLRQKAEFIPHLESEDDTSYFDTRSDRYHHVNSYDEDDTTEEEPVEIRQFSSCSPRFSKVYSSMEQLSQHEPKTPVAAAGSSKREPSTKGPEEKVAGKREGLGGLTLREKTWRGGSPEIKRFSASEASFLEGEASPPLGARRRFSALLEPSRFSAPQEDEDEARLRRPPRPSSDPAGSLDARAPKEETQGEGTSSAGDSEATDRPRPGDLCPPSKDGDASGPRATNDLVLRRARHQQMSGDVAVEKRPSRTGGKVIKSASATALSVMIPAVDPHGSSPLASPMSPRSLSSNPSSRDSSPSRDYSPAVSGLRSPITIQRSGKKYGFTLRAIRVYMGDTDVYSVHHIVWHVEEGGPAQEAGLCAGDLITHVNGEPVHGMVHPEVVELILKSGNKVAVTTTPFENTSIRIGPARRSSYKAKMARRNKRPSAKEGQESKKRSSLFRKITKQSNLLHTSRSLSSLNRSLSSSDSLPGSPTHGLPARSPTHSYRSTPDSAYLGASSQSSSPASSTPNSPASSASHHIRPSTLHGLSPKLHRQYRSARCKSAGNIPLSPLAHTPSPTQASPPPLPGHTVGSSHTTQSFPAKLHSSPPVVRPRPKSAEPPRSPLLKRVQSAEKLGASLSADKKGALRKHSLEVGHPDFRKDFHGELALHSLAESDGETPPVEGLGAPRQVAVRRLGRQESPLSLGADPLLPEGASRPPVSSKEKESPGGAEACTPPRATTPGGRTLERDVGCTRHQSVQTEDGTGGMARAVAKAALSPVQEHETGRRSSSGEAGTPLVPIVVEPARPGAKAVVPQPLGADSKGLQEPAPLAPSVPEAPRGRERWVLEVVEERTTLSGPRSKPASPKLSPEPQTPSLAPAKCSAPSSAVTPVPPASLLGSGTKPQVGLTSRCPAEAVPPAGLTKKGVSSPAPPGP

CC(C)(O)[C@H](F)CN1Cc2cc(NC(=O)c3cnn4cccnc34)c(N3CCOCC3)cc2C1=O
dTM [1]: -1.2 K

CN(C)CCOc1ccc(-c2nc(-c3ccncc3)c(-c3ccc4c(c3)CC/C4=N\O)[nH]2)cc1
% of control [2]: 100%

Nc1cnc(N2CCc3cc(S(=O)(=O)Nc4c(F)cc(Cl)cc4F)cc(N4CCCC4=O)c32)nc1 [TP-020n]
% of control [3]: 96% | % of control [4]: 89%

O=C(NOC[C@H](O)CO)c1ccc(F)c(F)c1Nc1ccc(I)cc1F
% of control [5]: 59%

CNC(=O)Nc1ccc(-c2nc(N3CC4CCC(C3)O4)c3cnn(C4CCC5(CC4)OCCO5)c3n2)cc1
% of inhibition [6]: 1%

CC[C@@H](Nc1c(C#N)c(-c2ccc(-c3cccc(C)c3F)cc2)nc2cnccc12)C(=O)O [BAY-091]
% of inhibition [7]: 20.6%

— ChEMBL document CHEMBL5465560, “Selectivity Literature for EUbOPEN Chemogenomic Library” (2024)
